Patent publication US9365584B2, “Thieno [2,3-B] pyridinedione activators of AMPK and therapeutic uses thereof” (Poxel, priority 2009, dated 2016)

Tested on: AMPK
Test: AMPK enzyme activity assay (Delfia technology, AMARA peptide substrate)
Assay type: biochemical
Conditions: compound at 30 μM vs AMP at 200 μM
Outline: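 Value is the ratio of compound (30 μM) to AMP (200 μM) response, each as % of basal control. Phosphorylation of the AMARA peptide after AMPK addition was read by Delfia with an anti-phosphoserine antibody.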

O=C1Nc2scc(-c3ccc(Br)cc3)c2C(=O)C1(F)c1ccncc1 (stereo not shown) [No 124, 3-(4-bromophenyl)-5-fluoro-5-(4-pyridyl)-7H-thieno[2,3-b]pyridine-4,6-dione]
Activity: Ratio between the % of control (basal activity) of compound of formula (1) at 30 μM and the % of control (basal activity) of AMP (natural substrate) at 200 μM: B (50%≦B<75%)

O=C1Nc2scc(-c3ccccc3Br)c2C(=O)C1(F)c1ccccc1 (stereo not shown) [No 125, 3-(2-bromophenyl)-5-fluoro-5-phenyl-7H-thieno[2,3-b]pyridine-4,6-dione]
Activity: Ratio between the % of control (basal activity) of compound of formula (1) at 30 μM and the % of control (basal activity) of AMP (natural substrate) at 200 μM: A (0%<A<50%)

COc1cccc(C2(C)C(=O)Nc3sc(Cl)c(-c4cccc(C)c4)c3C2=O)c1 (stereo not shown) [No 126, 2-chloro-5-(3-methoxyphenyl)-5-methyl-3-(m-tolyl)-7H-thieno[2,3-b]pyridine-4,6-dione]
Activity: Ratio between the % of control (basal activity) of compound of formula (1) at 30 μM and the % of control (basal activity) of AMP (natural substrate) at 200 μM: B (50%≦B<75%)

COc1cc(Br)ccc1-c1csc2c1C(=O)C(F)(c1ccccc1)C(=O)N2 (stereo not shown) [No 127, 3-(4-bromo-2-methoxy-phenyl)-5-fluoro-5-phenyl-7H-thieno[2,3-b]pyridine-4,6-dione]
Activity: Ratio between the % of control (basal activity) of compound of formula (1) at 30 μM and the % of control (basal activity) of AMP (natural substrate) at 200 μM: A (0%<A<50%)

COc1cc(Br)ccc1-c1c(F)sc2c1C(=O)C(F)(c1ccccc1)C(=O)N2 (stereo not shown) [No 128, 3-(4-bromo-2-methoxy-phenyl)-2,5-difluoro-5-phenyl-7H-thieno[2,3-b]pyridine-4,6-dione]
Activity: Ratio between the % of control (basal activity) of compound of formula (1) at 30 μM and the % of control (basal activity) of AMP (natural substrate) at 200 μM: A (0%<A<50%)

Cc1ccccc1-c1csc2c1C(=O)C(F)(c1ccccc1)C(=O)N2 (stereo not shown) [No 129, 5-fluoro-3-(o-tolyl)-5-phenyl-7H-thieno[2,3-b]pyridine-4,6-dione]
Activity: Ratio between the % of control (basal activity) of compound of formula (1) at 30 μM and the % of control (basal activity) of AMP (natural substrate) at 200 μM: B (50%≦B<75%)

Cc1ccccc1-c1c(F)sc2c1C(=O)C(F)(c1ccccc1)C(=O)N2 (stereo not shown) [No 130, 2,5-difluoro-3-(o-tolyl)-5-phenyl-7H-thieno[2,3-b]pyridine-4,6-dione]
Activity: Ratio between the % of control (basal activity) of compound of formula (1) at 30 μM and the % of control (basal activity) of AMP (natural substrate) at 200 μM: B (50%≦B<75%)

O=C1Nc2scc(-c3ccccc3)c2C(=O)C1(F)c1cccc(C(F)(F)F)c1 (stereo not shown) [No 131, 5-fluoro-3-phenyl-5-[3-(trifluoromethyl)phenyl]-7H-thieno[2,3-b]pyridine-4,6-dione]
Activity: Ratio between the % of control (basal activity) of compound of formula (1) at 30 μM and the % of control (basal activity) of AMP (natural substrate) at 200 μM: B (50%≦B<75%)

O=C1Nc2sc(F)c(-c3ccccc3)c2C(=O)C1(F)c1cccc(C(F)(F)F)c1 (stereo not shown) [No 132, 2,5-difluoro-3-phenyl-5-[3-(trifluoromethyl)phenyl]-7H-thieno[2,3-b]pyridine-4,6-dione]
Activity: Ratio between the % of control (basal activity) of compound of formula (1) at 30 μM and the % of control (basal activity) of AMP (natural substrate) at 200 μM: A (0%<A<50%)

O=C1Nc2scc(-c3ccccc3)c2C(=O)C1(F)c1ccc(C(F)(F)F)cc1 (stereo not shown) [No 133, 5-fluoro-3-phenyl-5-[4-(trifluoromethyl)phenyl]-7H-thieno[2,3-b]pyridine-4,6-dione]
Activity: Ratio between the % of control (basal activity) of compound of formula (1) at 30 μM and the % of control (basal activity) of AMP (natural substrate) at 200 μM: A (0%<A<50%)

O=C1Nc2sc(F)c(-c3ccccc3)c2C(=O)C1(F)c1ccc(C(F)(F)F)cc1 (stereo not shown) [No 134, 2,5-difluoro-3-phenyl-5-[4-(trifluoromethyl)phenyl]-7H-thieno[2,3-b]pyridine-4,6-dione]
Activity: Ratio between the % of control (basal activity) of compound of formula (1) at 30 μM and the % of control (basal activity) of AMP (natural substrate) at 200 μM: A (0%<A<50%)

O=C1Nc2scc(-c3ccc(C(F)(F)F)cc3)c2C(=O)C1(F)c1ccccc1 (stereo not shown) [No 135, 5-fluoro-5-phenyl-3-[4-(trifluoromethyl)phenyl]-7H-thieno[2,3-b]pyridine-4,6-dione]
Activity: Ratio between the % of control (basal activity) of compound of formula (1) at 30 μM and the % of control (basal activity) of AMP (natural substrate) at 200 μM: A (0%<A<50%)

Cc1cccc(-c2csc3c2C(=O)C(F)(c2ccccc2)C(=O)N3)c1 (stereo not shown) [No 136, 5-fluoro-3-(m-tolyl)-5-phenyl-7H-thieno[2,3-b]pyridine-4,6-dione]
Activity: Ratio between the % of control (basal activity) of compound of formula (1) at 30 μM and the % of control (basal activity) of AMP (natural substrate) at 200 μM: B (50%≦B<75%)

Cc1cccc(-c2c(F)sc3c2C(=O)C(F)(c2ccccc2)C(=O)N3)c1 (stereo not shown) [No 137, 2,5-difluoro-3-(m-tolyl)-5-phenyl-7H-thieno[2,3-b]pyridine-4,6-dione]
Activity: Ratio between the % of control (basal activity) of compound of formula (1) at 30 μM and the % of control (basal activity) of AMP (natural substrate) at 200 μM: C (C≧75%)

O=C1Nc2scc(-c3ccccc3Cl)c2C(=O)C1(F)c1ccccc1 (stereo not shown) [No 138, 3-(2-chlorophenyl)-5-fluoro-5-phenyl-7H-thieno[2,3-b]pyridine-4,6-dione]
Activity: Ratio between the % of control (basal activity) of compound of formula (1) at 30 μM and the % of control (basal activity) of AMP (natural substrate) at 200 μM: B (50%≦B<75%)

CC1(c2cccc(S(C)(=O)=O)c2)C(=O)Nc2sc(Cl)c(-c3ccccc3F)c2C1=O (stereo not shown) [No 139, 2-chloro-3-(2-fluorophenyl)-5-methyl-5-(3-methyl-sulfonylphenyl)-7H-thieno[2,3-b]pyridine-4,6-dione]
Activity: Ratio between the % of control (basal activity) of compound of formula (1) at 30 μM and the % of control (basal activity) of AMP (natural substrate) at 200 μM: A (0%<A<50%)

CC1(c2ccc(O)cc2)C(=O)Nc2sc(Cl)c(-c3ccccc3)c2C1=O (stereo not shown) [No 140, 2-chloro-5-(4-hydroxyphenyl)-5-methyl-3-phenyl-7H-thieno[2,3-b]pyridine-4,6-dione]
Activity: Ratio between the % of control (basal activity) of compound of formula (1) at 30 μM and the % of control (basal activity) of AMP (natural substrate) at 200 μM: A (0%<A<50%)

COc1ccccc1-c1c(Cl)sc2c1C(=O)C(C)(c1ccc(S(C)(=O)=O)cc1)C(=O)N2 (stereo not shown) [No 141, 2-chloro-3-(2-methoxyphenyl)-5-methyl-5-(4-methyl-sulfonylphenyl)-7H-thieno[2,3-b]pyridine-4,6-dione]
Activity: Ratio between the % of control (basal activity) of compound of formula (1) at 30 μM and the % of control (basal activity) of AMP (natural substrate) at 200 μM: A (0%<A<50%)

CC(C)(C)c1ccc(-c2csc3c2C(=O)C(F)(c2ccccc2)C(=O)N3)cc1 (stereo not shown) [No 142, 3-(4-tert-butylphenyl)-5-fluoro-5-phenyl-7H-thieno[2,3-b]pyridine-4,6-dione]
Activity: Ratio between the % of control (basal activity) of compound of formula (1) at 30 μM and the % of control (basal activity) of AMP (natural substrate) at 200 μM: A (0%<A<50%)

CC(C)(C)c1ccc(-c2c(Cl)sc3c2C(=O)C(F)(c2ccccc2)C(=O)N3)cc1 (stereo not shown) [No 143, 3-(4-tert-butylphenyl)-2-chloro-5-fluoro-5-phenyl-7H-thieno[2,3-b]pyridine-4,6-dione]
Activity: Ratio between the % of control (basal activity) of compound of formula (1) at 30 μM and the % of control (basal activity) of AMP (natural substrate) at 200 μM: A (0%<A<50%)

Cc1ccc(-c2c(Cl)sc3c2C(=O)C(C)(c2cccc(C)c2)C(=O)N3)cc1 (stereo not shown) [No 144, 2-chloro-5-methyl-5-(m-tolyl)-3-(p-tolyl)-7H-thieno[2,3-b]pyridine-4,6-dione]
Activity: Ratio between the % of control (basal activity) of compound of formula (1) at 30 μM and the % of control (basal activity) of AMP (natural substrate) at 200 μM: A (0%<A<50%)

COc1ccccc1-c1c(Cl)sc2c1C(=O)C(C)(c1ccccc1)C(=O)N2 (stereo not shown) [No 145, 2-chloro-3-(2-methoxyphenyl)-5-methyl-5-phenyl-7H-thieno[2,3-b]pyridine-4,6-dione]
Activity: Ratio between the % of control (basal activity) of compound of formula (1) at 30 μM and the % of control (basal activity) of AMP (natural substrate) at 200 μM: A (0%<A<50%)

COc1ccc(C2(C)C(=O)Nc3sc(Cl)c(-c4cccc(F)c4)c3C2=O)cc1 (stereo not shown) [No 146, 2-chloro-3-(3-fluorophenyl)-5-(4-methoxyphenyl)-5-methyl-7H-thieno[2,3-b]pyridine-4,6-dione]
Activity: Ratio between the % of control (basal activity) of compound of formula (1) at 30 μM and the % of control (basal activity) of AMP (natural substrate) at 200 μM: A (0%<A<50%)

O=C1Nc2scc(-c3ccccc3O)c2C(=O)C1(F)c1ccccc1 (stereo not shown) [No 147, 5-fluoro-3-(2-hydroxyphenyl)-5-phenyl-7H-thieno[2,3-b]pyridine-4,6-dione]
Activity: Ratio between the % of control (basal activity) of compound of formula (1) at 30 μM and the % of control (basal activity) of AMP (natural substrate) at 200 μM: C (C≧75%)

CC1(c2cccc(S(C)(=O)=O)c2)C(=O)Nc2sc(Cl)c(-c3cccc(F)c3)c2C1=O (stereo not shown) [No 148, 2-chloro-3-(3-fluorophenyl)-5-methyl-5-(3-methyl-sulfonylphenyl)-7H-thieno[2,3-b]pyridine-4,6-dione]
Activity: Ratio between the % of control (basal activity) of compound of formula (1) at 30 μM and the % of control (basal activity) of AMP (natural substrate) at 200 μM: A (0%<A<50%)

CC1(c2ccc(S(C)(=O)=O)cc2)C(=O)Nc2sc(Cl)c(-c3cccc(F)c3)c2C1=O (stereo not shown) [No 149, 2-chloro-3-(3-fluorophenyl)-5-methyl-5-(4-methyl-sulfonylphenyl)-7H-thieno[2,3-b]pyridine-4,6-dione]
Activity: Ratio between the % of control (basal activity) of compound of formula (1) at 30 μM and the % of control (basal activity) of AMP (natural substrate) at 200 μM: A (0%<A<50%)

COc1ccc(C2(C)C(=O)Nc3sc(Cl)c(-c4ccc(C)cc4)c3C2=O)cc1 (stereo not shown) [No 150, 2-chloro-5-(4-methoxyphenyl)-5-methyl-3-(p-tolyl)-7H-thieno[2,3-b]pyridine-4,6-dione]
Activity: Ratio between the % of control (basal activity) of compound of formula (1) at 30 μM and the % of control (basal activity) of AMP (natural substrate) at 200 μM: A (0%<A<50%)

O=C1Nc2sc(Cl)c(-c3cc(F)ccc3OCc3ccccc3)c2C(=O)C1(F)c1ccccc1 (stereo not shown) [No 151, 3-(2-benzyloxy-5-fluoro-phenyl)-2-chloro-5-fluoro-5-phenyl-7H-thieno[2,3-b]pyridine-4,6-dione]
Activity: Ratio between the % of control (basal activity) of compound of formula (1) at 30 μM and the % of control (basal activity) of AMP (natural substrate) at 200 μM: A (0%<A<50%)

COc1ccc(OCc2ccccc2)c(-c2csc3c2C(=O)C(F)(c2ccccc2)C(=O)N3)c1 (stereo not shown) [No 152, 3-(2-benzyloxy-5-methoxy-phenyl)-5-fluoro-5-phenyl-7H-thieno[2,3-b]pyridine-4,6-dione]
Activity: Ratio between the % of control (basal activity) of compound of formula (1) at 30 μM and the % of control (basal activity) of AMP (natural substrate) at 200 μM: B (50%≦B<75%)

COc1ccc(-c2c(Cl)sc3c2C(=O)C(C)(c2ccccc2F)C(=O)N3)cc1 (stereo not shown) [No 153, 2-chloro-5-(2-fluorophenyl)-3-(4-methoxyphenyl)-5-methyl-7H-thieno[2,3-b]pyridine-4,6-dione]
Activity: Ratio between the % of control (basal activity) of compound of formula (1) at 30 μM and the % of control (basal activity) of AMP (natural substrate) at 200 μM: A (0%<A<50%)

COc1ccc(C2(C)C(=O)Nc3sc(Cl)c(-c4cccc(C)c4)c3C2=O)cc1 (stereo not shown) [No 155, 2-chloro-5-(4-methoxyphenyl)-5-methyl-3-(m-tolyl)-7H-thieno[2,3-b]pyridine-4,6-dione]
Activity: Ratio between the % of control (basal activity) of compound of formula (1) at 30 μM and the % of control (basal activity) of AMP (natural substrate) at 200 μM: A (0%<A<50%)
